Measurements reported in patent EP4692083A1, “NOVEL AZABICYCLE DERIVATIVES AND PHARMACEUTICAL COMPOSITION FOR INHIBITING AUTOTAXIN, COMPRISING SAME” (Nextgen Bioscience Co., Ltd., priority 2023, dated 2024).

Each molecule was assayed against human Autotaxin protein (Homo sapiens, UniProt Q13822) (assay: Evaluation of the inhibitory activity against human Autotaxin protein (18:1 LysoPC substrate, choline assay kit, absorbance at 570 nm)). Settings: at 500nM compound, 2 hours at 37 °C, read-out: Inhibition rate (%, at 500nM).
Format: biochemical
Procedure: Solutions of each synthesized compound (80 uM, 100% dimethyl sulfoxide) were sequentially diluted 5-fold with dimethyl sulfoxide to prepare 6 concentrations. Each concentration of the compound was diluted 2-fold with 1x test buffer (50 mM Tris-Cl (pH 8.0), 5 mM KCl, 1 mM CaCl2, 1 mM MgCl2, 140 mM NaCl, deionized water, 1 mg/mL BSA), and 1 uL (1.25% dimethylsulfoxide) of the diluted mixture was dispensed into each well of a 96-well clear round-bottom plate. 9 uL of 1x test buffer was added, and 20 uL of 240 nM human autotaxin protein (buffer: 50 mM Tris-HCl, pH 8.0, with 150 mM sodium chloride and 20% glycerol) was added. 10 uL of sonicated 360 uM 18:1 LysoPC (diluted with 1x assay buffer) was added. The reaction was performed for 2 hours in a shaking incubator at 37 °C, and a secondary reaction mixture (choline assay kit, KA1662) (65 uL of 1x assay buffer: 1 uL of choline oxidase: 1 uL of dye probe) was prepared. 60 uL of the secondary reaction mixture was added to the plate where the reaction was performed, and incubated for 30 minutes in a shaker. The absorbance value was measured at a wavelength of 570 nm using a SpectraMax iD3 microplate reader. The percentage inhibition activity value (% inhibition) was calculated by the formula: (1 - absorbance value test group / absorbance value control group) X 100.

SMILES	inhibition at 0.5 µM
c1ccc(CNc2ncc(-c3nnc(N4C[C@@H]5[C@H](C4)[C@H]5c4cnn[nH]4)o3)cn2)cc1 [Example 1, 5-(5-((1R,5S,6r)-6-(1H-1,2,3-Triazol-5-yl)-3-azabicyclo[3.1.0]hexan-3-yl)-1,3,4-oxadiazol-2-yl)-N-benzylpyrimidin-2-amine]	63.6%
Clc1cccc(CNc2ncc(-c3nnc(N4C[C@@H]5[C@H](C4)[C@H]5c4cnn[nH]4)o3)cn2)c1 [Example 2, 5-(5-((1R,5S,6r)-6-(1H-1,2,3-Triazol-5-yl)-3-azabicyclo[3.1.0]hexan-3-yl)-1,3,4-oxadiazol-2-yl)-N-(3-chlorobenzyl)pyrimidin-2-amine]	88.5%
Clc1ccc(CNc2ncc(-c3nnc(N4C[C@@H]5[C@H](C4)[C@H]5c4cnn[nH]4)o3)cn2)cc1 [Example 3, 5-(5-((1R,5S,6r)-6-(1H-1,2,3-Triazol-5-yl)-3-azabicyclo[3.1.0]hexan-3-yl)-1,3,4-oxadiazol-2-yl)-N-(4-chlorobenzyl)pyrimidin-2-amine]	73.1%
Fc1ccc(CNc2ncc(-c3nnc(N4C[C@@H]5[C@H](C4)[C@H]5c4cnn[nH]4)o3)cn2)cc1F [Example 4, 5-(5-((1R,5S,6r)-6-(1H-1,2,3-Triazol-5-yl)-3-azabicyclo[3.1.0]hexan-3-yl)-1,3,4-oxadiazol-2-yl)-N-(3,4-difluorobenzyl)pyrimidin-2-amine]	81.5%
Fc1cc(F)cc(CNc2ncc(-c3nnc(N4C[C@@H]5[C@H](C4)[C@H]5c4cnn[nH]4)o3)cn2)c1 [Example 5, 5-(5-((1R,5S,6r)-6-(1H-1,2,3-Triazol-5-yl)-3-azabicyclo[3.1.0]hexan-3-yl)-1,3,4-oxadiazol-2-yl)-N-(3,5-difluorobenzyl)pyrimidin-2-amine]	86.4%
Clc1ccc(CNc2ncc(-c3nnc(N4C[C@@H]5[C@H](C4)[C@H]5c4cnn[nH]4)o3)cn2)cc1Cl [Example 6, 5-(5-((1R,5S,6r)-6-(1H-1,2,3-Triazol-5-yl)-3-azabicyclo[3.1.0]hexan-3-yl)-1,3,4-oxadiazol-2-yl)-N-(3,4-dichlorobenzyl)pyrimidin-2-amine]	68.9%
Clc1cc(Cl)cc(CNc2ncc(-c3nnc(N4C[C@@H]5[C@H](C4)[C@H]5c4cnn[nH]4)o3)cn2)c1 [Example 7, 5-(5-((1R,5S,6r)-6-(1H-1,2,3-Triazol-5-yl)-3-azabicyclo[3.1.0]hexan-3-yl)-1,3,4-oxadiazol-2-yl)-N-(3,5-dichlorobenzyl)pyrimidin-2-amine]	92%
Brc1cc(Br)cc(CNc2ncc(-c3nnc(N4C[C@@H]5[C@H](C4)[C@H]5c4cnn[nH]4)o3)cn2)c1 [Example 8, 5-(5-((1R,5S,6r)-6-(1H-1,2,3-Triazol-5-yl)-3-azabicyclo[3.1.0]hexan-3-yl)-1,3,4-oxadiazol-2-yl)-N-(3,5-dibromobenzyl)pyrimidin-2-amine]	97.3%
c1cc2c(cc1CNc1ncc(-c3nnc(N4C[C@@H]5[C@H](C4)[C@H]5c4cnn[nH]4)o3)cn1)OCO2 [Example 9, 5-(5-((1R,5S,6r)-6-(1H-1,2,3-Triazol-5-yl)-3-azabicyclo[3.1.0]hexan-3-yl)-1,3,4-oxadiazol-2-yl)-N-(benzo[d][1,3]dioxol-5-ylmethyl)pyrimidin-2-amine]	40.6%
FC(F)(F)c1cc(CNc2ncc(-c3nnc(N4C[C@@H]5[C@H](C4)[C@H]5c4cnn[nH]4)o3)cn2)cc(C(F)(F)F)c1 [Example 10, 5-(5-((1R,5S,6r)-6-(1H-1,2,3-Triazol-5-yl)-3-azabicyclo[3.1.0]hexan-3-yl)-1,3,4-oxadiazol-2-yl)-N-(3,5-bis(trifluoromethyl)benzyl)pyrimidin-2-amine]	91.6%
c1ccc(CCNc2ncc(-c3nnc(N4C[C@@H]5[C@H](C4)[C@H]5c4cnn[nH]4)o3)cn2)cc1 [Example 11, 5-(5-((1R,5S,6r)-6-(1H-1,2,3-Triazol-5-yl)-3-azabicyclo[3.1.0]hexan-3-yl)-1,3,4-oxadiazol-2-yl)-N-phenethylpyrimidin-2-amine]	85.3%
Fc1cccc(CCNc2ncc(-c3nnc(N4C[C@@H]5[C@H](C4)[C@H]5c4cnn[nH]4)o3)cn2)c1 [Example 12, 5-(5-((1R,5S,6r)-6-(1H-1,2,3-Triazol-5-yl)-3-azabicyclo[3.1.0]hexan-3-yl)-1,3,4-oxadiazol-2-yl)-N-(3-fluorophenethyl)pyrimidin-2-amine]	82.9%
Fc1ccc(CCNc2ncc(-c3nnc(N4C[C@@H]5[C@H](C4)[C@H]5c4cnn[nH]4)o3)cn2)cc1 [Example 13, 5-(5-((1R,5S,6r)-6-(1H-1,2,3-Triazol-5-yl)-3-azabicyclo[3.1.0]hexan-3-yl)-1,3,4-oxadiazol-2-yl)-N-(4-fluorophenethyl)pyrimidin-2-amine]	86%
Clc1cccc(CCNc2ncc(-c3nnc(N4C[C@@H]5[C@H](C4)[C@H]5c4cnn[nH]4)o3)cn2)c1 [Example 14, 5-(5-((1R,5S,6r)-6-(1H-1,2,3-Triazol-5-yl)-3-azabicyclo[3.1.0]hexan-3-yl)-1,3,4-oxadiazol-2-yl)-N-(3-chlorophenethyl)pyrimidin-2-amine]	85.3%
Clc1ccc(CCNc2ncc(-c3nnc(N4C[C@@H]5[C@H](C4)[C@H]5c4cnn[nH]4)o3)cn2)cc1 [Example 15, 5-(5-((1R,5S,6r)-6-(1H-1,2,3-Triazol-5-yl)-3-azabicyclo[3.1.0]hexan-3-yl)-1,3,4-oxadiazol-2-yl)-N-(4-chlorophenethyl)pyrimidin-2-amine]	94.5%
c1ccc2c(c1)CC(Nc1ncc(-c3nnc(N4C[C@@H]5[C@H](C4)[C@H]5c4cnn[nH]4)o3)cn1)C2 [Example 16, 5-(5-((1R,5S,6r)-6-(1H-1,2,3-Triazol-5-yl)-3-azabicyclo[3.1.0]hexan-3-yl)-1,3,4-oxadiazol-2-yl)-N-(2,3-dihydro-1H-inden-2-yl)pyrimidin-2-amine]	98.6%
Fc1cc2c(cc1F)CC(Nc1ncc(-c3nnc(N4C[C@@H]5[C@H](C4)[C@H]5c4cnn[nH]4)o3)cn1)C2 [Example 17, 5-(5-((1R,5S,6r)-6-(1H-1,2,3-Triazol-5-yl)-3-azabicyclo[3.1.0]hexan-3-yl)-1,3,4-oxadiazol-2-yl)-N-(5,6-difluoro-2,3-dihydro-1H-inden-2-yl)pyrimidin-2-amine]	96.7%
Brc1ccc2c(c1)CC(Nc1ncc(-c3nnc(N4C[C@@H]5[C@H](C4)[C@H]5c4cnn[nH]4)o3)cn1)C2 (stereo partly drawn) [Example 18, 5-(5-((1R,5S,6r)-6-(1H-1,2,3-Triazol-5-yl)-3-azabicyclo[3.1.0]hexan-3-yl)-1,3,4-oxadiazol-2-yl)-N-(5-bromo-2,3-dihydro-1H-inden-2-yl)pyrimidin-2-amine]	87.6%
O=C(CCc1cnc(NC2Cc3ccccc3C2)nc1)N1C[C@@H]2[C@H](C1)[C@H]2c1cnn[nH]1 [Example 19, 1-((1R,5S,6r)-6-(1H-1,2,3-Triazol-5-yl)-3-azabicyclo[3.1.0]hexan-3-yl)-3-(2-((2,3-dihydro-1H-inden-2-yl)amino)pyrimidin-5-yl)propan-1-one]	91.9%
FC(F)(F)c1ccc(CNc2ncc(-c3nnc(N4C[C@@H]5[C@H](C4)[C@H]5c4cnn[nH]4)o3)cn2)cc1 [Example 20, 5-(5-((1R,5S,6r)-6-(1H-1,2,3-Triazol-5-yl)-3-azabicyclo[3.1.0]hexan-3-yl)-1,3,4-oxadiazol-2-yl)-N-(4-(trifluoromethyl)benzyl)pyrimidin-2-amine]	88.5%
FC(F)(F)c1cccc(CNc2ncc(-c3nnc(N4C[C@@H]5[C@H](C4)[C@H]5c4cnn[nH]4)o3)cn2)c1 [Example 21, 5-(5-((1R,5S,6r)-6-(1H-1,2,3-Triazol-5-yl)-3-azabicyclo[3.1.0]hexan-3-yl)-1,3,4-oxadiazol-2-yl)-N-(3-(trifluoromethyl)benzyl)pyrimidin-2-amine]	97.6%
FC(F)(F)c1ccccc1CNc1ncc(-c2nnc(N3C[C@@H]4[C@H](C3)[C@H]4c3cnn[nH]3)o2)cn1 [Example 22, 5-(5-((1R,5S,6r)-6-(1H-1,2,3-Triazol-5-yl)-3-azabicyclo[3.1.0]hexan-3-yl)-1,3,4-oxadiazol-2-yl)-N-(2-(trifluoromethyl)benzyl)pyrimidin-2-amine]	98.4%
FC(F)c1ccc(CNc2ncc(-c3nnc(N4C[C@@H]5[C@H](C4)[C@H]5c4cnn[nH]4)o3)cn2)cc1 [Example 23, 5-(5-((1R,5S,6r)-6-(1H-1,2,3-Triazol-5-yl)-3-azabicyclo[3.1.0]hexan-3-yl)-1,3,4-oxadiazol-2-yl)-N-(4-(difluoromethyl)benzyl)pyrimidin-2-amine]	82.2%
N#Cc1ccc(CNc2ncc(-c3nnc(N4C[C@@H]5[C@H](C4)[C@H]5c4cnn[nH]4)o3)cn2)cc1 [Example 24, 4-(((5-(5-((1R,5S,6r)-6-(1H-1,2,3-Triazol-5-yl)-3-azabicyclo[3.1.0]hexan-3-yl)-1,3,4-oxadiazol-2-yl)pyrimidin-2-yl)amino)methyl)benzonitrile]	66.3%
N#Cc1cccc(CNc2ncc(-c3nnc(N4C[C@@H]5[C@H](C4)[C@H]5c4cnn[nH]4)o3)cn2)c1 [Example 25, 3-(((5-(5-((1R,5S,6r)-6-(1H-1,2,3-Triazol-5-yl)-3-azabicyclo[3.1.0]hexan-3-yl)-1,3,4-oxadiazol-2-yl)pyrimidin-2-yl)amino)methyl)benzonitrile]	95.2%
